Source: patent publication US20260274857A1, “CRYSTAL OF DIHYDROPYRIDINONE DERIVATIVE OR SOLVATE THEREOF” (Shionogi & Co., Ltd., priority 2022, published 2026)
Each block holds one compound with its values, some of them ahead of it.

Assays:
[1] = Solid stability test: storage stability (amount of analogous substance by HPLC, appearance); format: physicochemical
Procedure: For the solid stability of the crystal of the compound represented by Formula (I) obtained in Example 1 and the crystal of the compound represented by Formula (II) obtained in Example 16, the chemical stability under temperature, temperature and humidity conditions, and light irradiation was evaluated. The proportion (%) of the analogous substance produced by an HPLC method and the change in appearance were evaluated.
About 10 mg of the crystal was accurately weighed in a 2 mL glass container with a polyethylene stopper. After the glass container was closed, the glass container was stored at 40° C. or 60° C. for 2 weeks, 1 month, 2 months, 3 months, or 6 months. A sample stored at 40° C. is referred to as a 40° C. hermetically sealed product, and a sample stored at 60° C. is referred to as a 60° C. hermetically sealed product. In a state where the glass container was opened, the glass container was stored at a relative humidity of 75±5% at 40° C. or a relative humidity of 89±5% for 2 weeks, 1 month, 2 months, 3 months or 6 months, or in the presence of silica gel at 40° C. for 1 month, 2 months, 3 months or 6 months. A sample stored at 40° C. and a relative humidity of 75±5% or 89±5% is referred to as a 40° C. and 75% relative humidity (also referred to as 40±2° C./75±5% RH) or 40° C. and 89% relative humidity (also referred to as 40±2° C./89% RH) stored product, and a sample stored in the presence of silica gel at 40° C. is referred to as a 40° C. stored product. The −40° C. hermetically sealed product was used as a standard product.
The amount of the analogous substance was measured by an area percentage method by the HPLC method under the following conditions.
HPLC Conditions 1 were used for the crystal and amorphous substance of the compound represented by Formula (I) obtained in Example 1, and HPLC conditions 2 were used for the crystal of the compound represented by Formula (II) obtained in Example 16.
• Detector: ultraviolet absorptiometer (measurement wavelength: 260 nm) • Column: YMC-Triart C18 ExRS, S-1.9 μm, 3.0×100 mm • Column temperature: constant temperature at near 40° C. • Mobile phase A: 0.1% formic acid aqueous solution • Mobile phase B: acetonitrile • Flow rate: about 0.6 mL/min • Injection amount: 3 μL • Sample cooler temperature: about 6° C. • Feed of mobile phase: The mixing ratio of mobile phase A and mobile phase B was changed as shown in Table 18 to control concentration gradient.
Column: Cortecs (2.7 μm 3.0×100 mm)
Column temperature: 40° C.
UV detection wavelength: 254 nm

[2] = Moisture adsorption/desorption isotherm measurement (DVS); format: physicochemical
Description: The moisture adsorption/desorption isotherm measurement is a measurement method for measuring the adsorption and desorption behavior of moisture by measuring a weight change in a solid as a measurement target under each relative humidity condition.
As a basic measurement method, based on the dry weight at 0% RH (relative humidity 0%), the relative humidity is increased every 5% or 10%, and after the weight is stabilized at each relative humidity, the amount of adsorbed water can be determined from the weight increase from the reference value. Similarly, the desorption amount of water can be measured by decreasing the relative humidity every 5% or 10% from 100% RH or 95% RH.
By plotting the value of the weight change at each relative humidity, an adsorption/desorption isotherm can be obtained.
Sorption and desorption of adhesion water and crystal water are affected by particle size, crystallinity, crystal habit, and the like, so that the measurement results may slightly change.
The crystals and amorphous substances obtained in each Example were weighed in an aluminum pan, and allowed to stand at 25° C. and a relative humidity of 0%. The measurement was started after the compound was sufficiently dried and the weight was stabilized, and the weight when the relative humidity changed from 0% to 95% by 5% was recorded. Next, the weight when the relative humidity changed from 95% to 0% by 5% was recorded.
Device: DVS Advantage manufactured by Surface Measurement Systems

[3] = 40° C. Relative humidity 75%, 2 months
[4] = 40° C. hermetically sealed, 1 month
[5] = 40° C. hermetically sealed, 2 months
[6] = 40° C. hermetically sealed, 2 weeks
[7] = 60° C. hermetically sealed, 1 month
[8] = 60° C. hermetically sealed, 2 weeks
[9] = (Standard product) −40° C. hermetically sealed, 1 month
[10] = (Standard product) −40° C. hermetically sealed, 2 months

Amount (%) of total analogous substance [1, 3]: 0.68%
Amount (%) of total analogous substance [1, 4]: 0.65%
Amount (%) of total analogous substance [1, 5]: 0.66%
Amount (%) of total analogous substance [1, 6]: 0.64%
Amount (%) of total analogous substance [1, 7]: 0.85%
Amount (%) of total analogous substance [1, 8]: 0.76%
Amount (%) of total analogous substance [1, 9]: 0.61%
Amount (%) of total analogous substance [1, 10]: 0.62%
Compound: CS(=O)(=O)CC(=O)Nc1c2c(nn1CCCOC(F)(F)F)CC1(CCOc3cc(OCC(F)(F)F)ccc31)NC2=O (centres unmarked) [listing 1 of 2 here]

Amount (%) of total analogous substance [1, 3]: 0.27%
Amount (%) of total analogous substance [1, 4]: 0.22%
Amount (%) of total analogous substance [1, 5]: 0.23%
Amount (%) of total analogous substance [1, 6]: 0.22%
Amount (%) of total analogous substance [1, 7]: 0.24%
Amount (%) of total analogous substance [1, 8]: 0.23%
Amount (%) of total analogous substance [1, 9]: 0.22%
Amount (%) of total analogous substance [1, 10]: 0.22%
Compound: Cc1ccc(-n2nc3c(c2NC(=O)CS(C)(=O)=O)C(=O)NC2(CCOc4cc(F)cc(F)c42)C3)nc1 (centres unmarked)

Moisture adsorption amount (%) ([2]; relative humidity 0.0%): 0.001%
Moisture desorption amount (%) ([2]; relative humidity 0.0%): −0.004%
Moisture adsorption amount (%) ([2]; relative humidity 5.0%): 0.242%
Moisture desorption amount (%) ([2]; relative humidity 5.0%): 0.453%
Moisture adsorption amount (%) ([2]; relative humidity 10.0%): 0.353%
Moisture desorption amount (%) ([2]; relative humidity 10.0%): 0.715%
Moisture adsorption amount (%) ([2]; relative humidity 15.0%): 0.457%
Moisture desorption amount (%) ([2]; relative humidity 15.0%): 0.916%
Moisture adsorption amount (%) ([2]; relative humidity 20.0%): 0.556%
Moisture desorption amount (%) ([2]; relative humidity 20.0%): 1.067%
Moisture adsorption amount (%) ([2]; relative humidity 25.0%): 0.651%
Moisture desorption amount (%) ([2]; relative humidity 25.0%): 1.194%
Moisture adsorption amount (%) ([2]; relative humidity 30.0%): 0.741%
Moisture desorption amount (%) ([2]; relative humidity 30.0%): 1.311%
Moisture adsorption amount (%) ([2]; relative humidity 35.0%): 0.831%
Moisture desorption amount (%) ([2]; relative humidity 35.0%): 1.412%
Moisture adsorption amount (%) ([2]; relative humidity 40.0%): 0.922%
Moisture desorption amount (%) ([2]; relative humidity 40.0%): 1.510%
Moisture adsorption amount (%) ([2]; relative humidity 45.0%): 1.003%
Moisture desorption amount (%) ([2]; relative humidity 45.0%): 1.601%
Moisture adsorption amount (%) ([2]; relative humidity 50.0%): 1.096%
Moisture desorption amount (%) ([2]; relative humidity 50.0%): 1.688%
Moisture adsorption amount (%) ([2]; relative humidity 55.0%): 1.186%
Moisture desorption amount (%) ([2]; relative humidity 55.0%): 1.776%
Moisture adsorption amount (%) ([2]; relative humidity 60.0%): 1.285%
Moisture desorption amount (%) ([2]; relative humidity 60.0%): 1.870%
Moisture adsorption amount (%) ([2]; relative humidity 65.0%): 1.382%
Moisture desorption amount (%) ([2]; relative humidity 65.0%): 1.964%
Moisture adsorption amount (%) ([2]; relative humidity 70.0%): 1.498%
Moisture desorption amount (%) ([2]; relative humidity 70.0%): 2.062%
Moisture adsorption amount (%) ([2]; relative humidity 75.0%): 1.612%
Moisture desorption amount (%) ([2]; relative humidity 75.0%): 2.166%
Moisture adsorption amount (%) ([2]; relative humidity 80.0%): 1.744%
Moisture desorption amount (%) ([2]; relative humidity 80.0%): 2.278%
Moisture adsorption amount (%) ([2]; relative humidity 85.0%): 1.915%
Moisture desorption amount (%) ([2]; relative humidity 85.0%): 2.398%
Moisture adsorption amount (%) ([2]; relative humidity 90.0%): 2.168%
Moisture desorption amount (%) ([2]; relative humidity 90.0%): 2.522%
Moisture adsorption amount (%) ([2]; relative humidity 95.0%): 2.597%
Moisture desorption amount (%) ([2]; relative humidity 95.0%): 2.597%
Compound: CS(=O)(=O)CC(=O)Nc1c2c(nn1CCCOC(F)(F)F)CC1(CCOc3cc(OCC(F)(F)F)ccc31)NC2=O (centres unmarked) [listing 2 of 2 here]
